By EC50 is commonly meant the concentration that produces a half-maximal response. A higher EC50 goes with lower potency in that assay.

The results in this text go back to patent US20240368174A1, “Antiviral Heterocyclic Compounds” (Enanta Pharmaceuticals, Inc., priority 2023, published 2024).

The structures appear in SMILES notation. Bounds are passed on as bounds.

The first test has as its system HMPV clinical isolate A2 strain TN 94-49. The test can be described thus: HMPV antiviral assay, Method 2 (LLC-MK2 cells with CP-100-356, ATP-Lite). It counts as cell-based. To be noted: human metapneumovirus, 168 h; hMPV A2 TN/94-49, LLC-MK2 cells with 4 μM CP-100-356, 7 days, ATP-Lite. The procedure: In vitro HMPV antiviral activity was evaluated using the clinical isolate A2 strain TN 94-49 (obtained from Dr. John Williams, Vanderbilt University, Tennessee) and LLC-MK2 cells (Millipore Sigma CB_85062804), an immortalized kidney epithelial cell line from Macaca mulatta. Compounds were resuspended in dimethyl sulfoxide (DMSO) at 10 mM, serially diluted and added to a 384-well source plate. Subsequently, the compounds were diluted and transferred onto 384-well assay plates using the Echo-650 automated liquid handling system (Beckman Coulter, Indiana). The test compounds were assessed in duplicate at a top concentration of 200 nM followed by 2.5-fold serial dilutions to give a total of 10 concentration points. DMSO control wells were also included on the assay plates and were either infected or not, acting as positive and negative controls. A2 TN 94-49 virus infections were performed in-suspension with LLC-MK2 cells. The cells were washed twice with PBS and removed from the cell-culture flask with 0.25% trypsin-EDTA (Thermo Fisher Scientific, MA). The trypsin-EDTA was inactivated by resuspending in 2% fetal bovine serum (FBS) and OptiMEM (ThermoFisher Scientific, MA) containing 1% antibiotic-antimycotic. Cells were pelleted by centrifuging for 5 minutes at 800 rpm, the supernatant was removed, and cells were re-suspended and washed in PBS plus 100 μg/mL CaCl2). This step was performed twice. Cells were then re-suspended in serum-free (SF)-OptiMEM containing 4 μg/mL TPCK-Trypsin (Sigma Aldrich, MO), 1% antibiotic-antimycotic (ThermoFisher Scientific, MA), 100 μg/mL CaCl2), and 4 μM of CP-100-356, a P-glycoprotein inhibitor. Cells were counted and seeded at a density of 5,000 cells/well, 12.5 μL/well. Virus infections were done at a multiplicity of infection (MOI) of 0.16 with 12.5 μL added per well. Virus infections were performed in infection media which contained SF-OptiMEM, 100 μg/mL CaCl2) and 1% antibiotic-antimycotic. HMPV viral stocks are suspended in infection media+5% glycerol, thus an equal volume of infection media+5% glycerol was added to uninfected wells to equalize the final % glycerol across all wells of the assay plate. The final concentration of TPCK-trypsin was 2 μg/mL. The final concentration of CP-100-356 was 2 μM. The assay plates were incubated at 37° C., 5% CO2 for 7 days. After 7 days incubation, 12.5 μL of ATP-Lite (PerkinElmer, MA) was added to each well and the raw luminescence values were determined using the Envision 2104 (Perkin Elmer, MA). The average of the raw luminescence values for the cells and virus only positive control wells was subtracted from all conditions tested and the percent cell health was determined by dividing these values by the average of the cells only negative control wells. EC50 values were then calculated by non-linear regression using a four-parameter curve logistic equation. The curve fit model employed was XLFit Dose Response One Site Model 200: y=(A+(B/(1+((x/C)^D)))), where A is the minimum y value, B is the maximum y value, C is the log EC50 value, and D is the slope factor.
As for `COc1cc(-c2nc([C@@](O)(CNC(=O)c3cc(OC)c4nn(C5(F)CC5)cc4c3)c3ccccc3)cc3c2OC[C@]3(C)C(N)=O)c(F)cn1` [Example 640], the EC50 is less than 200 nM. Take `CC(C)c1nccc(-c2nc([C@@](O)(CNC(=O)c3cc(OC4CC4)c4nn(C5(F)CC5)cc4c3)C3CC3)cc3c2OC[C@]3(C)C(N)=O)c1Cl` [Example 912]: the EC50 is greater than 200 nM. In turn, `COc1cc(C(=O)NC[C@@](O)(c2ccccc2)c2cc3c(c(-c4ccnc(C)c4Cl)n2)OC[C@]3(C)C(N)=O)cc2oc(C3CC3)nc12` [Example 695] returned a concentration giving a half-maximal response (EC50) of less than 200 nM. Still for that read-out and setting: the result for `COc1cc(C(=O)NC[C@@](O)(c2ccccc2)c2cc3c(c(-n4ncc5c(F)cccc54)n2)OC[C@]3(C)C(N)=O)cn2cc(C3CC3)nc12` [Example 634] reads less than 200 nM; that for `COc1cc(C(=O)NC[C@](O)(c2cc3c(c(-c4ccnc(C(C)C)c4Cl)n2)OC[C@]3(C)C(N)=O)C2CC2)cc2cn(C3CC3)nc12` [Example 810], less than 200 nM; that for `COc1nccc(-c2nc([C@@](O)(CNC(=O)c3cc(OC)c4nc(C5CC5)oc4c3)C3(F)CC3)cc3c2OC[C@]3(C)C(N)=O)c1Cl` [Example 645], less than 200 nM. Compound `COc1nccc(-c2nc([C@@](O)(CNC(=O)c3cc(OC)c4nn(C5CC5)cc4c3)C3CC3)cc3c2OC[C@]3(C)C(N)=O)c1F` [Example 802] returned an EC50 of less than 200 nM. `COc1cc(C(=O)NC[C@](O)(c2cc3c(c(-c4cccc(C(=O)O)c4Cl)n2)OC[C@]3(C)C(N)=O)C2CC2)cc2cn(C3CC3)nc12` [Example 808] registered an EC50 greater than 200 nM. With `COc1cc(C(=O)NC[C@](O)(c2cc3c(c(-c4cc(C(F)(F)F)ncc4F)n2)OC[C@]3(C)C(N)=O)C2(F)CC2)cn2cc(C3CC3)nc12` [Example 668], the EC50 is less than 200 nM.

`COc1cc(C(=O)NC[C@](O)(c2cc3c(c(-c4ccnc(C(C)C)c4Cl)n2)OC[C@]3(C)C(N)=O)C2CC2)cc2cn(C(F)F)nc12` [Example 907] yielded an EC50 greater than 200 nM. `COc1cc(C(=O)NC[C@@](O)(c2ccc(F)cc2)c2cc3c(c(-c4ccnc(C)c4Cl)n2)OC[C@]3(C)C(N)=O)cc2cn(C(F)F)nc12` [Example 648]: the concentration giving a half-maximal response (EC50) was greater than 200 nM.

Turning to `COc1cc(C(=O)NC[C@@](O)(c2ccc(F)cc2)c2cc3c(c(-c4ccnc(C)c4Cl)n2)OC[C@]3(C)C(N)=O)cc2cn(C3(F)CC3)nc12` [Example 647], the EC50 was less than 200 nM.

In turn, `COc1nccc(-c2nc([C@@](O)(CNC(=O)c3cc(OC)n4nc(C5CC5)cc4c3)C3(F)CC3)cc3c2OC[C@]3(C)C(N)=O)c1Cl` [Example 656] gave an EC50 of less than 200 nM.

The compound `COc1nccc(-c2nc([C@@](O)(CNC(=O)c3cc(OC)c4nc(C5CC5)oc4c3)C3CC(F)(F)C3)cc3c2OC[C@]3(C)C(N)=O)c1Cl` [Example 897] showed an EC50 greater than 200 nM.

Still in this test, the particulars now being: human metapneumovirus; hMPV A2 TN/94-49, LLC-MK2 cells with CP-100-356, Method 2.
`COc1cc(C(=O)NC[C@](O)(c2cccc(F)c2)c2cc3c(c(-c4cc(C(F)(F)F)ncc4F)n2)OC[C@]3(C)C(N)=O)cc2cn(C3CC3)nc12` [Example 409]: the EC50 was greater than 200 nM. Take `C[C@]1(C(N)=O)COc2c1cc([C@@](O)(CNC(=O)c1cc(Cl)c3nn(C4CC4)cc3c1)C1(F)CC1)nc2-c1ccnc(Cl)c1Cl` [Example 523]: the EC50 was less than 200 nM.

For the compound `CNc1cc([C@](O)(CNC(=O)c2cc(OC)c3nn(C4CC4)cc3c2)c2cc3c(c(-c4cc(Cl)c(F)cc4F)n2)OC[C@]3(C)C(N)=O)ccn1` [Example 490], the EC50 is less than 200 nM. As to `Cc1cc(C(=O)NC[C@@](O)(c2ccccc2)c2cc3c(c(-c4cc(Cl)c(F)cc4F)n2)OC[C@]3(C)C(N)=O)cc2cn[nH]c12` [Example 118], the EC50 was less than 200 nM. `Cc1nc2c(OC3CC3)cc(C(=O)NC[C@@](O)(c3ccccc3)c3cc4c(c(-c5cc(Cl)c(F)cc5F)n3)OC[C@]4(C)C(N)=O)cc2o1` [Example 234] yielded an EC50 of less than 200 nM. The same measure, in the same setting: the result for `COc1cc(C(=O)NC[C@@](O)(c2cccc(F)c2)c2cc3c(c(-c4ccnc(C(F)F)c4Cl)n2)OC[C@]3(C)C(N)=O)cc2oc(C3CC3)nc12` [Example 567] reads less than 200 nM. Compound `COc1cc(C(=O)NC[C@](O)(c2cc3c(c(-c4ccc(SC(F)(F)F)cc4)n2)OC[C@]3(C)C(N)=O)C2CC2)cc2cn(C3CC3)nc12` [Example 386] showed an EC50 greater than 200 nM. The compound `COc1cc(C(=O)NC[C@](O)(c2cc3c(c(-c4ccnc(Cl)c4Cl)n2)OC[C@]3(C)C(N)=O)C2(F)CC2)cn2cc(C3(F)CC3)nc12` [Example 522] showed an EC50 of less than 200 nM.

On to `COc1nccc(-c2nc([C@@](O)(CNC(=O)c3cc(OC)c4nn(C(F)F)cc4c3)c3cccc(F)c3)cc3c2OC[C@]3(C)C(N)=O)c1Cl` [Example 558], for which the EC50 is less than 200 nM. `COc1nccc(-c2nc([C@@](O)(CNC(=O)c3cc(OC4CC4)n4nc(C5CC5)cc4c3)C(F)(F)F)cc3c2OC[C@]3(C)C(N)=O)c1Cl` [Example 607]: the EC50 was less than 200 nM. For `C[C@]1(C(N)=O)COc2c1cc([C@@](O)(CNC(=O)c1cc(OC(F)F)c3nc(C4CC4)oc3c1)c1ccccc1)nc2-c1cc(Cl)c(F)cc1F` [Example 216], the concentration giving a half-maximal response (EC50) was less than 200 nM.

Compound `COc1cc(C(=O)NC[C@@](O)(c2ccccc2)c2cc3c(c(-c4ccc5c(c4)OC(F)(F)O5)n2)OC[C@]3(C)C(N)=O)cc2oc(C)nc12` [Example 201] showed an EC50 of less than 200 nM. `COc1cc(C(=O)NC[C@@](O)(c2cnoc2)c2cc3c(c(-c4cc(Cl)c(F)cc4F)n2)OC[C@]3(C)C(N)=O)cc2cn(C3CC3)nc12` [Example 491] returned an EC50 of less than 200 nM. Compound `COc1cc(C(=O)NC[C@@](O)(c2ccncc2)c2cc3c(c(-c4cc(Cl)c(F)cc4F)n2)OC[C@]3(C)C(N)=O)cc2cn(C3CC3)nc12` [Example 152] yielded an EC50 of less than 200 nM. The compound `COc1nccc(-c2nc([C@@](O)(CNC(=O)c3cc(OC)c4nn(C5CC5)cc4c3)c3ccccc3)cc3c2OC[C@]3(C)C(N)=O)c1Cl` [Example 553] returned a concentration giving a half-maximal response (EC50) of less than 200 nM. Take `COc1cc(C(=O)NC[C@](O)(c2cc3c(c(-c4ccnc(F)c4Cl)n2)OC[C@]3(C)C(N)=O)C2CC2)cc2cn(C3(F)CC3)nc12` [Example 209]: the EC50 is less than 200 nM. In the case of `COc1cc(C(=O)NC[C@@](O)(c2ccccc2)c2cc3c(c(-c4cccc(Cl)c4Cl)n2)OC[C@]3(C)C(N)=O)cc2oc(C)nc12` [Example 95], the EC50 is less than 200 nM.

As for `COc1cc(C(=O)NC[C@](O)(c2cccc(F)c2)c2cc3c(c(-c4ccc(C(C)(C)O)cc4)n2)OC[C@]3(C)C(N)=O)cc2cn(C3(F)CC3)nc12` [Example 398], the EC50 is greater than 200 nM. Same read-out and setting: under `COc1nccc(-c2nc([C@@](O)(CNC(=O)c3cc(OC)c4nn(C(F)F)cc4c3)c3ccccc3)cc3c2OC[C@]3(C)C(N)=O)c1Cl` [Example 554] stands less than 200 nM; under `COc1cc(C(=O)NC[C@@](O)(c2ccccc2)c2cc3c(c(-c4ccc(S(C)(=O)=O)cc4F)n2)OC[C@]3(C)C(N)=O)cc2cn(C3(F)CC3)nc12` [Example 371], greater than 200 nM; under `COc1cc(C(=O)NC[C@](O)(c2cc3c(c(-c4cc(Cl)c(F)cc4F)n2)OC[C@]3(C)C(N)=O)c2ccn(C)n2)cc2cn(C3CC3)nc12` [Example 480], less than 200 nM.

In turn, `COc1cc(C(=O)NC[C@](O)(c2cc3c(c(-c4cc(Cl)ncc4Cl)n2)OC[C@]3(C)C(N)=O)C2CC2)cc2cn(C3CC3)nc12` [Example 389] showed an EC50 of less than 200 nM. In turn, `C[C@]1(C(N)=O)COc2c1cc([C@@](O)(CNC(=O)c1cc(OC3CC3)n3nc(C4CC4)cc3c1)c1cccc(F)c1)nc2-c1cccc(Cl)c1Cl` [Example 335] returned an EC50 of less than 200 nM.

Consider `COc1cc(C(=O)NC[C@](O)(c2cc3c(c(-c4ccnc(Cl)c4Cl)n2)OC[C@]3(C)C(N)=O)C2(F)CC2)cc2sc(C)nc12` [Example 524], for which the EC50 was less than 200 nM. Same read-out and setting: under `COc1nccc(-c2nc([C@@](O)(CNC(=O)c3cc(OC4CC4)c4nn(C(F)F)cc4c3)C(F)(F)F)cc3c2OC[C@]3(C)C(N)=O)c1Cl` [Example 587] stands less than 200 nM.

Take `Cc1nccc(-c2nc([C@@](O)(CNC(=O)c3cc(OC4CC4)c4nn(C(F)F)cc4c3)C3CC3)cc3c2OC[C@]3(C)C(N)=O)c1Cl` [Example 601]: the EC50 was less than 200 nM.
